{"source": "patent US8192962B2", "about": "“Processes for detecting toxic substances” (Daikin Industries, Ltd., priority 2001, dated 2012)", "test_system": "Energy system protein genes", "assay": "DNA chip mRNA expression in yeast, energy system protein genes (Table 4)", "format": "cell-based, Saccharomyces cerevisiae S288C", "in_short": "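Cells were grown at 25° C. in YPD, treated at logarithmic phase for 2 h with a chemical at a concentration inhibiting growth but not causing death, and compared with untreated cultures. Labeled cDNA was hybridized to a DNA chip carrying all yeast genes, and the expression ratio was taken from scanner fluorescence.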"}
{"smiles": "[Cl][Cd][Cl]", "note": "[(2), CdCl2]", "values": [{"measurement": "The level of expressed mRNA in the presence of chemical substance/The level of expressed mRNA in the absence of chemical substance", "setting": "yeast gene YJR048W", "result": 0.9}, {"measurement": "The level of expressed mRNA in the presence of chemical substance/The level of expressed mRNA in the absence of chemical substance", "setting": "yeast gene YJR121W, cells incubated two hours with the chemical substance", "result": 1.1}, {"measurement": "The level of expressed mRNA in the presence of chemical substance/The level of expressed mRNA in the absence of chemical substance", "setting": "yeast gene YJR155W", "result": 3.7}, {"measurement": "The level of expressed mRNA in the presence of chemical substance/The level of expressed mRNA in the absence of chemical substance", "setting": "yeast gene YKL016C, cells incubated two hours with the chemical substance", "result": 1.3}, {"measurement": "The level of expressed mRNA in the presence of chemical substance/The level of expressed mRNA in the absence of chemical substance", "setting": "yeast gene YKL060C, cells incubated two hours with the chemical substance", "result": 0.8}, {"measurement": "The level of expressed mRNA in the presence of chemical substance/The level of expressed mRNA in the absence of chemical substance", "setting": "yeast gene YKL141W, cells incubated two hours with the chemical substance", "result": 1.1}, {"measurement": "The level of expressed mRNA in the presence of chemical substance/The level of expressed mRNA in the absence of chemical substance", "setting": "yeast gene YKL148C, cells incubated two hours with the chemical substance", "result": 0.8}, {"measurement": "The level of expressed mRNA in the presence of chemical substance/The level of expressed mRNA in the absence of chemical substance", "setting": "yeast gene YKR009C, cells incubated two hours with the chemical substance", "result": 1.2}, {"measurement": "The level of expressed mRNA in the presence of chemical substance/The level of expressed mRNA in the absence of chemical substance", "setting": "yeast gene YKR058W, cells incubated two hours with the chemical substance, 25° C., YPD medium", "result": 0.9}, {"measurement": "The level of expressed mRNA in the presence of chemical substance/The level of expressed mRNA in the absence of chemical substance", "setting": "yeast gene YKR097W", "result": 2.4}, {"measurement": "The level of expressed mRNA in the presence of chemical substance/The level of expressed mRNA in the absence of chemical substance", "setting": "yeast gene YLL041C, cells incubated two hours with the chemical substance", "result": 0.5}, {"measurement": "The level of expressed mRNA in the presence of chemical substance/The level of expressed mRNA in the absence of chemical substance", "setting": "yeast gene YLR038C, cells incubated two hours with the chemical substance", "result": 1.1}, {"measurement": "The level of expressed mRNA in the presence of chemical substance/The level of expressed mRNA in the absence of chemical substance", "setting": "yeast gene YLR044C, cells incubated two hours with the chemical substance", "result": 0.6}, {"measurement": "The level of expressed mRNA in the presence of chemical substance/The level of expressed mRNA in the absence of chemical substance", "setting": "yeast gene YLR134W, cells incubated two hours with the chemical substance", "result": 0.6}, {"measurement": "The level of expressed mRNA in the presence of chemical substance/The level of expressed mRNA in the absence of chemical substance", "setting": "yeast gene YLR258W, cells incubated two hours with the chemical substance", "result": 1.0}, {"measurement": "The level of expressed mRNA in the presence of chemical substance/The level of expressed mRNA in the absence of chemical substance", "setting": "yeast gene YLR284C, cells incubated two hours with the chemical substance", "result": 1.0}, {"measurement": "The level of expressed mRNA in the presence of chemical substance/The level of expressed mRNA in the absence of chemical substance", "setting": "yeast gene YLR295C, cells incubated two hours with the chemical substance, 25° C., YPD medium", "result": 1.1}, {"measurement": "The level of expressed mRNA in the presence of chemical substance/The level of expressed mRNA in the absence of chemical substance", "setting": "yeast gene YLR304C, cells incubated two hours with the chemical substance", "result": 0.6}, {"measurement": "The level of expressed mRNA in the presence of chemical substance/The level of expressed mRNA in the absence of chemical substance", "setting": "yeast gene YLR345W", "result": 1.4}, {"measurement": "The level of expressed mRNA in the presence of chemical substance/The level of expressed mRNA in the absence of chemical substance", "setting": "yeast gene YLR354C, cells incubated two hours with the chemical substance", "result": 2.5}, {"measurement": "The level of expressed mRNA in the presence of chemical substance/The level of expressed mRNA in the absence of chemical substance", "setting": "yeast gene YLR377C, cells incubated two hours with the chemical substance", "result": 2.6}, {"measurement": "The level of expressed mRNA in the presence of chemical substance/The level of expressed mRNA in the absence of chemical substance", "setting": "yeast gene YLR395C, cells incubated two hours with the chemical substance", "result": 1.3}, {"measurement": "The level of expressed mRNA in the presence of chemical substance/The level of expressed mRNA in the absence of chemical substance", "setting": "yeast gene YML087C", "result": 1.6}, {"measurement": "The level of expressed mRNA in the presence of chemical substance/The level of expressed mRNA in the absence of chemical substance", "setting": "yeast gene YML120C, cells incubated two hours with the chemical substance", "result": 1.2}, {"measurement": "The level of expressed mRNA in the presence of chemical substance/The level of expressed mRNA in the absence of chemical substance", "setting": "yeast gene YML129C, cells incubated two hours with the chemical substance", "result": 0.9}, {"measurement": "The level of expressed mRNA in the presence of chemical substance/The level of expressed mRNA in the absence of chemical substance", "setting": "yeast gene YMR073C, cells incubated two hours with the chemical substance", "result": 1.1}, {"measurement": "The level of expressed mRNA in the presence of chemical substance/The level of expressed mRNA in the absence of chemical substance", "setting": "yeast gene YMR118C", "result": 2.9}, {"measurement": "The level of expressed mRNA in the presence of chemical substance/The level of expressed mRNA in the absence of chemical substance", "setting": "yeast gene YMR205C, cells incubated two hours with the chemical substance", "result": 0.7}, {"measurement": "The level of expressed mRNA in the presence of chemical substance/The level of expressed mRNA in the absence of chemical substance", "setting": "yeast gene YMR261C, cells incubated two hours with the chemical substance", "result": 1.6}, {"measurement": "The level of expressed mRNA in the presence of chemical substance/The level of expressed mRNA in the absence of chemical substance", "setting": "yeast gene YMR267W, cells incubated two hours with the chemical substance, 25° C., YPD medium", "result": 1.8}, {"measurement": "The level of expressed mRNA in the presence of chemical substance/The level of expressed mRNA in the absence of chemical substance", "setting": "yeast gene YMR323W, cells incubated two hours with the chemical substance", "result": 1.1}, {"measurement": "The level of expressed mRNA in the presence of chemical substance/The level of expressed mRNA in the absence of chemical substance", "setting": "yeast gene YNL071W", "result": 0.9}, {"measurement": "The level of expressed mRNA in the presence of chemical substance/The level of expressed mRNA in the absence of chemical substance", "setting": "yeast gene YNL202W, cells incubated two hours with the chemical substance", "result": 1.3}, {"measurement": "The level of expressed mRNA in the presence of chemical substance/The level of expressed mRNA in the absence of chemical substance", "setting": "yeast gene YNL241C", "result": 2.5}, {"measurement": "The level of expressed mRNA in the presence of chemical substance/The level of expressed mRNA in the absence of chemical substance", "setting": "yeast gene YNL331C", "result": 3.6}, {"measurement": "The level of expressed mRNA in the presence of chemical substance/The level of expressed mRNA in the absence of chemical substance", "setting": "yeast gene YOL086C, cells incubated two hours with the chemical substance", "result": 0.5}, {"measurement": "The level of expressed mRNA in the presence of chemical substance/The level of expressed mRNA in the absence of chemical substance", "setting": "yeast gene YOL165C", "result": 4.5}, {"measurement": "The level of expressed mRNA in the presence of chemical substance/The level of expressed mRNA in the absence of chemical substance", "setting": "yeast gene YOR142W, cells incubated two hours with the chemical substance", "result": 1.2}, {"measurement": "The level of expressed mRNA in the presence of chemical substance/The level of expressed mRNA in the absence of chemical substance", "setting": "yeast gene YOR178C, cells incubated two hours with the chemical substance", "result": 1.3}, {"measurement": "The level of expressed mRNA in the presence of chemical substance/The level of expressed mRNA in the absence of chemical substance", "setting": "yeast gene YOR388C, cells incubated two hours with the chemical substance", "result": 1.6}, {"measurement": "The level of expressed mRNA in the presence of chemical substance/The level of expressed mRNA in the absence of chemical substance", "setting": "yeast gene YPL031C, cells incubated two hours with the chemical substance", "result": 2.0}, {"measurement": "The level of expressed mRNA in the presence of chemical substance/The level of expressed mRNA in the absence of chemical substance", "setting": "yeast gene YPL061W, cells incubated two hours with the chemical substance", "result": 1.4}, {"measurement": "The level of expressed mRNA in the presence of chemical substance/The level of expressed mRNA in the absence of chemical substance", "setting": "yeast gene YPL088W", "result": 1.3}, {"measurement": "The level of expressed mRNA in the presence of chemical substance/The level of expressed mRNA in the absence of chemical substance", "setting": "yeast gene YPL171C", "result": 4.1}, {"measurement": "The level of expressed mRNA in the presence of chemical substance/The level of expressed mRNA in the absence of chemical substance", "setting": "yeast gene YPL240C", "result": 1.4}, {"measurement": "The level of expressed mRNA in the presence of chemical substance/The level of expressed mRNA in the absence of chemical substance", "setting": "yeast gene YPL262W, cells incubated two hours with the chemical substance", "result": 1.7}, {"measurement": "The level of expressed mRNA in the presence of chemical substance/The level of expressed mRNA in the absence of chemical substance", "setting": "yeast gene YPL275W, cells incubated two hours with the chemical substance", "result": 1.5}, {"measurement": "The level of expressed mRNA in the presence of chemical substance/The level of expressed mRNA in the absence of chemical substance", "setting": "yeast gene YPL276W, cells incubated two hours with the chemical substance", "result": 1.5}, {"measurement": "The level of expressed mRNA in the presence of chemical substance/The level of expressed mRNA in the absence of chemical substance", "setting": "yeast gene YPR048W, cells incubated two hours with the chemical substance", "result": 2.0}, {"measurement": "The level of expressed mRNA in the presence of chemical substance/The level of expressed mRNA in the absence of chemical substance", "setting": "yeast gene YPR184W, cells incubated two hours with the chemical substance", "result": 1.4}]}
